Test results published in patent US4002754A, “Substituted piperazinyliminorifamycins” (Gruppo Lepetit S.p.A., priority 1975, dated 1977).
In brackets after ≈: the same amount, converted by molar mass.

How the values were obtained:
[1] = test system: Mycobacterium tuberculosis H37 Rv; test: minimal inhibitory concentration (antimicrobial activity); assay type: cell-based; conditions: H37RV, read-out: minimal inhibitory concentration
Description: (§1) The unexpected biological characteristics of the novel rifamycins have been evidenced by considering the survival time after a daily administration of rifampicin and a once-a-week administration of the same dose level per os of 3-[4-(2-propenyl)-1-piperazinyl]iminorifamycin SV (hereinafter referred to as "propenyl derivative") to mice infected with Mycobacterium tuberculosis H37 Rv. […] For instance, the value of the minimal inhibitory concentration of propenyl derivative against Mycobacterium tuberculosis H37 Rv is 0.02 μg/ml while that of rifampicin is 0.5 μg/ml.

[2] = test system: Mycobacterium tuberculosis H37 Rv; test: survival time of mice infected with Mycobacterium tuberculosis H37 Rv; assay type: in vivo; conditions: once-a-week per os vs daily rifampicin at same dose level; total amount about 1/6
Description: as §1

in vivo = conditions: mouse
Staphylococcus aureus = test: experimental Staphylococcus aureus infection in mice; assay type: in vivo; conditions: po
Procedure: In fact, propynyl derivative (i.e. 3-[4-(2-propynyl)-1-piperazinyl]iminomethylrifamycin SV) in representative experiments has shown an ED50 value of 0.20 mg/kg p.o. The toxicity is very low, the LD 50 value in mice being higher than 2000 mg/kg p.o. The new compounds are suitably administered in usual pharmaceutical combinations with conventional carriers.

toxicity (LD50) in mice = conditions: in words

SMILES | MIC [1] [µg/mL] | survival time [2] | LD50 (in vivo; ip) [mg/kg] | LD50 (in vivo; po) [mg/kg] | ED50 (Staphylococcus aureus) [mg/kg] | toxicity (toxicity (LD50) in mice)
C=CCN1CCN(N=Cc2c3c(O)c4c(O)c(C)c5c(c4c2O)C(=O)C(C)(OC=CC(OC)C(C)C(OC(C)=O)C(C)C(O)C(C)C(O)C(C)C=CC=C(C)C(=O)N3)O5)CC1 (stereo not shown) [propenyl derivative, 3-[4-(2-Propenyl)-1-piperazinyl]iminomethylrifamycin SV] | 0.02 (≈ 0.0236 µM) | about the same survival time | ~700 | ~1500 | – | –
C#CCN1CCN(N=Cc2c3c(O)c4c(O)c(C)c5c(c4c2O)C(=O)C(C)(OC=CC(OC)C(C)C(OC(C)=O)C(C)C(O)C(C)C(O)C(C)C=CC=C(C)C(=O)N3)O5)CC1 (stereo not shown) [propynyl derivative, 3-[4-(2-Propynyl)-1-piperazinyl]iminomethylrifamycin SV] | – | – | – | > 2000 | 0.2 | very low
